{
  "source": "patent US9446039B2",
  "about": "“Aminoheteroaryl compounds as MTH1 inhibitors” (CEMM—FORSCHUNGSZENTRUM FÜR MOLEKULARE MEDIZIN GMBH, priority 2012, dated 2016)",
  "assay_type_in_all_cases": "binding",
  "key": {"[1]": {"target": "T1, SW480 colon carcinoma cells lysate proteins (Homo sapiens, UniProt P00492)", "T1 sequence (P00492 1-218)": "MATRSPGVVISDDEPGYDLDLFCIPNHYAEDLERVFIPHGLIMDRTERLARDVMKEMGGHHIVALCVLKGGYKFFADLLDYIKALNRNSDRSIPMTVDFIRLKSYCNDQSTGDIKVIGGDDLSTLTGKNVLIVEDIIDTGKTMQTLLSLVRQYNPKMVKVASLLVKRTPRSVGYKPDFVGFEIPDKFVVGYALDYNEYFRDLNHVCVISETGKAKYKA", "settings": "PreyGene HPRT1"}, "[2]": {"target": "SW480 colon carcinoma cells lysate proteins (Homo sapiens, UniProt P14625)", "sequence (P14625 22-803)": "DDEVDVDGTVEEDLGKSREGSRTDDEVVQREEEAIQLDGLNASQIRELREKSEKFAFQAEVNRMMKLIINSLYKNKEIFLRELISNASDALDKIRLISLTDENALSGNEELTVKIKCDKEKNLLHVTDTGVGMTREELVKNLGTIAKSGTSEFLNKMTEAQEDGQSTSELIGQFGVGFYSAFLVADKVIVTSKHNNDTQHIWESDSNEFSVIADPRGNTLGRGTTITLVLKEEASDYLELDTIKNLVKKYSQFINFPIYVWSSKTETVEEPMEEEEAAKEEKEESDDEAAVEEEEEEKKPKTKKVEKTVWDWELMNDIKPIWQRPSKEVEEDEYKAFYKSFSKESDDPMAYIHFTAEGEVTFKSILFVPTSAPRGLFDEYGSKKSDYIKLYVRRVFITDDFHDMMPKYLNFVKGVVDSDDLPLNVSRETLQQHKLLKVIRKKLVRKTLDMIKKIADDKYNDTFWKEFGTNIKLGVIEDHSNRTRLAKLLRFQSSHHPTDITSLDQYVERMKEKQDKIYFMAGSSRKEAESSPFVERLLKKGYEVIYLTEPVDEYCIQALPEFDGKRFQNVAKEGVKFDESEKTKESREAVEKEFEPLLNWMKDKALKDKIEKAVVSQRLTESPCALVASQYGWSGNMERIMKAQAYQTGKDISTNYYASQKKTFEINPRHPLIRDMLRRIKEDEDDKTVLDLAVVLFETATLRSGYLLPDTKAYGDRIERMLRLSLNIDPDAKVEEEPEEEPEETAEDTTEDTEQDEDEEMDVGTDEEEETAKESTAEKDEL", "settings": "PreyGene HSP90B1"}, "[3]": {"target": "T2, SW480 colon carcinoma cells lysate proteins (Homo sapiens, UniProt Q01844)", "T2 sequence (Q01844 1-656)": "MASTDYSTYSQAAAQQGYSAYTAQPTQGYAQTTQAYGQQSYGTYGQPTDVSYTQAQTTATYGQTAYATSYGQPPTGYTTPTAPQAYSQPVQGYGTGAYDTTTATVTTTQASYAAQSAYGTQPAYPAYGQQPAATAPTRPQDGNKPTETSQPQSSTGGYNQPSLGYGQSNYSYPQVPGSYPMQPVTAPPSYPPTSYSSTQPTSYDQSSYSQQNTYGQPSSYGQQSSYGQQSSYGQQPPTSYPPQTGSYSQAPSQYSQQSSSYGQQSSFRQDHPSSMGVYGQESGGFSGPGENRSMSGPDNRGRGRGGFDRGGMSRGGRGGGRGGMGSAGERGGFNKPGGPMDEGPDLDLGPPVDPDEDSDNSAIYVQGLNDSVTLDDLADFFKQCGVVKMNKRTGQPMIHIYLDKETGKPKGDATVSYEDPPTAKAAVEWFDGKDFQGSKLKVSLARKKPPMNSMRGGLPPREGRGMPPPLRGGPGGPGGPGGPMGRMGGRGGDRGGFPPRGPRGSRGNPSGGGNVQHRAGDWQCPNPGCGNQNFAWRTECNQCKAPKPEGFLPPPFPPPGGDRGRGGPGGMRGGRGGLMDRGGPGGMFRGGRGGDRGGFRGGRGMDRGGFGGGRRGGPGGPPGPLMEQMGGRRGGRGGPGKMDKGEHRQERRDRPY", "settings": "PreyGene EWSR1; SW480 cells"}, "[4]": {"target": "T3, SW480 colon carcinoma cells lysate proteins (Homo sapiens, UniProt Q16181)", "T3 sequence (Q16181 1-437)": "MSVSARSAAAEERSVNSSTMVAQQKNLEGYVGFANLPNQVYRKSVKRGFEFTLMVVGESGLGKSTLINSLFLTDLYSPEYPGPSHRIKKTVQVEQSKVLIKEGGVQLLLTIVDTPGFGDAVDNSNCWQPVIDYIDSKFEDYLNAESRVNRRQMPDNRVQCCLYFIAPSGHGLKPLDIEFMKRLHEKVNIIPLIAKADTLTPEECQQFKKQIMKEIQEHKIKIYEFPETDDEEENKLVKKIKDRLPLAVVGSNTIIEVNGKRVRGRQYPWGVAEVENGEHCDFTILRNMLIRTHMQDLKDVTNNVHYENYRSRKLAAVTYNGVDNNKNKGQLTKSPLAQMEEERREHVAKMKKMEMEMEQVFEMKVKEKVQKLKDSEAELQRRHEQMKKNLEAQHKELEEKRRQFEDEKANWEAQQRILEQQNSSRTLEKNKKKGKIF", "settings": "PreyGene 07-Sep"}, "[5]": {"target": "SW480 colon carcinoma cells lysate proteins (Homo sapiens, UniProt P61204)", "sequence (P61204 whole entry)": "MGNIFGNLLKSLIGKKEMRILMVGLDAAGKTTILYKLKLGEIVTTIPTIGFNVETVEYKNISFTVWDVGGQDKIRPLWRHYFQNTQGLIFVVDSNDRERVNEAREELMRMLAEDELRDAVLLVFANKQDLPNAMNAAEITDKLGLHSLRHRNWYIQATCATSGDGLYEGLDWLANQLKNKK", "settings": "PreyGene ARF3"}, "[6]": {"target": "T4, SW480 colon carcinoma cells lysate proteins (Homo sapiens, UniProt P50395)", "T4 sequence (P50395 1-445)": "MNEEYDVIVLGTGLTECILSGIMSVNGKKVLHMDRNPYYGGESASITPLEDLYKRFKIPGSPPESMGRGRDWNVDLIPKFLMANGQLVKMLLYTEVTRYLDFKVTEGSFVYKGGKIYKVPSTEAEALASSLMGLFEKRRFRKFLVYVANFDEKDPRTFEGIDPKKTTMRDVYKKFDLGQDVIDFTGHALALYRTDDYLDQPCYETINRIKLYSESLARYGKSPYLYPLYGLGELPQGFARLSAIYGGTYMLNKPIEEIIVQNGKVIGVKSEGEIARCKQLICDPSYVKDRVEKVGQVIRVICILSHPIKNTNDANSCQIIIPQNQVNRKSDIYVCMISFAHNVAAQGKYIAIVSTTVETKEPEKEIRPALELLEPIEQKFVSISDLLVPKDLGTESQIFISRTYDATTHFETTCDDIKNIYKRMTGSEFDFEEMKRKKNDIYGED", "settings": "PreyGene GDI2"}, "[7]": {"target": "SW480 colon carcinoma cells lysate proteins (Homo sapiens, UniProt Q14315)", "sequence (Q14315 whole entry)": "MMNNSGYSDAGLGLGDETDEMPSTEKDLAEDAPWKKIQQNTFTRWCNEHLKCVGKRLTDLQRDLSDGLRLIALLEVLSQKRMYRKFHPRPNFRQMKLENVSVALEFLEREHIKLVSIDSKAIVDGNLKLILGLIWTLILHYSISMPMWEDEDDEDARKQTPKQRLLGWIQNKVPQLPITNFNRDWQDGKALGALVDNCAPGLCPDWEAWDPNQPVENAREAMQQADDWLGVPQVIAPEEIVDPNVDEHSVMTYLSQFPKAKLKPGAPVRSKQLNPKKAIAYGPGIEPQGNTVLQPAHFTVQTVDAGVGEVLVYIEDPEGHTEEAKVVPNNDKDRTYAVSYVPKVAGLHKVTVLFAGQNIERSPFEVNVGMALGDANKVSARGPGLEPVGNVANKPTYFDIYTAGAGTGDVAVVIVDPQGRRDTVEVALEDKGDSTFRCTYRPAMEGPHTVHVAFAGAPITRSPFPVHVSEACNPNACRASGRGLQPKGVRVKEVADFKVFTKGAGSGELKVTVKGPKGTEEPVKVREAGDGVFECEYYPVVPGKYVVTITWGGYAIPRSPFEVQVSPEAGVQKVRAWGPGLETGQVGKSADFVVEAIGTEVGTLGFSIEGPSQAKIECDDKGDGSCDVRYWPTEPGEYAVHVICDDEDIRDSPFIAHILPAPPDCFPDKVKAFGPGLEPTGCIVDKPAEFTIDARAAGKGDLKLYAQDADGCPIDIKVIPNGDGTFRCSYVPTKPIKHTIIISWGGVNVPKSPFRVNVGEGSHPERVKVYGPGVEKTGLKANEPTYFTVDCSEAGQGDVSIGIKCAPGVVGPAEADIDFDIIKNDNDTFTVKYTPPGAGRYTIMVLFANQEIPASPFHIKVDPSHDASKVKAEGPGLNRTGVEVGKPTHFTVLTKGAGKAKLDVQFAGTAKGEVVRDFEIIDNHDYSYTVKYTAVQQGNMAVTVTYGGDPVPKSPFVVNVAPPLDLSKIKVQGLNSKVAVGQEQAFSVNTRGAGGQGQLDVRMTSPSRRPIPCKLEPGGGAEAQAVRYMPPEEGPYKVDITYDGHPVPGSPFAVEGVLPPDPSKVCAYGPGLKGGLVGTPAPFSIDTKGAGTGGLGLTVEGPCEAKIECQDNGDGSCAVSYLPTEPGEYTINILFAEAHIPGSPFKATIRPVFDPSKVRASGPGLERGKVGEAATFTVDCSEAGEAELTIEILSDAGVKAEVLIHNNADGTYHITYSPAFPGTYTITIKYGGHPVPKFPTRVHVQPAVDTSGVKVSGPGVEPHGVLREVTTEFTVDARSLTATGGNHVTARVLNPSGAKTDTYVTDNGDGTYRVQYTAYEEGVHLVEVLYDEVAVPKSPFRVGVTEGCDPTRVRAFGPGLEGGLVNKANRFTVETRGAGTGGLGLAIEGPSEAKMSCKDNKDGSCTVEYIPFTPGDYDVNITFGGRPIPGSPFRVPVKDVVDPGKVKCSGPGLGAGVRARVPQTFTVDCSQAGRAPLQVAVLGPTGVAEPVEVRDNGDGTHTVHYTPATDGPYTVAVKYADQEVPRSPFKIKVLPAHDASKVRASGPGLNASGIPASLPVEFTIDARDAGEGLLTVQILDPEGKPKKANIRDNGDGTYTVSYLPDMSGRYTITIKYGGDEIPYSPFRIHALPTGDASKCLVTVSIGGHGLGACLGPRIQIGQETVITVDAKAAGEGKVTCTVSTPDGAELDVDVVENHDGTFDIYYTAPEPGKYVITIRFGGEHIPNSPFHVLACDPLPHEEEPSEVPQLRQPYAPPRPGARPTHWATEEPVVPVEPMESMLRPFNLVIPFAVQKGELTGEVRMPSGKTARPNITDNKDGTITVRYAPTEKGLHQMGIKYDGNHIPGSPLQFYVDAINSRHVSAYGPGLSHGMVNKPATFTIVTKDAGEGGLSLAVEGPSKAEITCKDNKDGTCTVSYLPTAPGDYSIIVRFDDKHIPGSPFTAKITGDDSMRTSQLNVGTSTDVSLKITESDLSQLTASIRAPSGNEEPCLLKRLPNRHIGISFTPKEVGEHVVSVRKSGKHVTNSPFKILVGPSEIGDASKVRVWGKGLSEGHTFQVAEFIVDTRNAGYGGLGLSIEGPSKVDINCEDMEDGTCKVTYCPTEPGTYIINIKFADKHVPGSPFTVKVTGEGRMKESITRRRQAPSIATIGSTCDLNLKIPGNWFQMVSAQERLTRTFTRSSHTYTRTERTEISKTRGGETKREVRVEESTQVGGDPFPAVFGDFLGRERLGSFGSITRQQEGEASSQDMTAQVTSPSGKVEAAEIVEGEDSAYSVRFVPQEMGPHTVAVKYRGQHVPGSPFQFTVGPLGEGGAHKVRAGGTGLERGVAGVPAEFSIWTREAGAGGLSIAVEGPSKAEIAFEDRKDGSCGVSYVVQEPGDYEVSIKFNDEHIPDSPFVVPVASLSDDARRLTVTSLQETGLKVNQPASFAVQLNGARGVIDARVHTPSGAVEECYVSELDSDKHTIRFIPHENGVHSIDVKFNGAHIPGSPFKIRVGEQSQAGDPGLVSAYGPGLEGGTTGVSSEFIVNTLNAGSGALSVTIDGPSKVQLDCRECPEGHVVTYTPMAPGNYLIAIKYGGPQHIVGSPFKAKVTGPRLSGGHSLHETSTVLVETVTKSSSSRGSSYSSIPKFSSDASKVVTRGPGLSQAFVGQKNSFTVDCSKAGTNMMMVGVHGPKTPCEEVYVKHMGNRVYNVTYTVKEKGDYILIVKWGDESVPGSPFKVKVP", "settings": "PreyGene FLNC; SW480 cells"}, "[8]": {"target": "SW480 colon carcinoma cells lysate proteins (Homo sapiens, UniProt Q9Y230)", "sequence (Q9Y230 whole entry)": "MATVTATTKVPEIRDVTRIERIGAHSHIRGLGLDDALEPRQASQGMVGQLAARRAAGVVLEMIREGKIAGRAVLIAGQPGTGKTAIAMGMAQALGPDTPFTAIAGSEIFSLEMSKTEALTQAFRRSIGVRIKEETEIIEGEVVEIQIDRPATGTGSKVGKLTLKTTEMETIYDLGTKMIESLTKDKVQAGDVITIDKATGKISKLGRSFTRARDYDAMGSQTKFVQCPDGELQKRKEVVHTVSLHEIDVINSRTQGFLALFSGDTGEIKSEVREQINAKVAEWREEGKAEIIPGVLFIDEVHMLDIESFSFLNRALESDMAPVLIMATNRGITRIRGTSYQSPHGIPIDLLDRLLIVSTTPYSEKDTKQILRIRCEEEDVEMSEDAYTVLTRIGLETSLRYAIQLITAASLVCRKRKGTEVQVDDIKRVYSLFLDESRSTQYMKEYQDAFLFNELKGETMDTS", "settings": "PreyGene RUVBL2"}},
  "data": [
    {"smiles": "C[C@H](Oc1cc(-c2cnn(C3CCNCC3)c2)cnc1N)c1c(Cl)ccc(F)c1Cl", "note": "[(5)-crizotinib]", "values": [
      {"measurement": "AvgP", "setting": "[1]", "result": 0.1891},
      {"measurement": "SC.Exp. 1-1", "setting": "[1]", "result": 2},
      {"measurement": "SC.Exp. 1-2", "setting": "[1]", "result": 0},
      {"measurement": "SC.Exp. 2-1", "setting": "[1]", "result": 0},
      {"measurement": "SC.Exp. 2-2", "setting": "[1]", "result": 0},
      {"measurement": "Sum (SC.Exp.)", "setting": "[1]", "result": 2},
      {"measurement": "AvgP", "setting": "[2]", "result": 0.228},
      {"measurement": "SC.Exp. 1-1", "setting": "[2]", "result": 13},
      {"measurement": "SC.Exp. 1-2", "setting": "[2]", "result": 8},
      {"measurement": "SC.Exp. 2-1", "setting": "[2]", "result": 0},
      {"measurement": "SC.Exp. 2-2", "setting": "[2]", "result": 0},
      {"measurement": "Sum (SC.Exp.)", "setting": "[2]", "result": 21},
      {"measurement": "AvgP", "setting": "[3]", "result": 0},
      {"measurement": "SC.Exp. 1-1", "setting": "[3]", "result": 0},
      {"measurement": "SC.Exp. 1-2", "setting": "[3]", "result": 1},
      {"measurement": "SC.Exp. 2-1", "setting": "[3]", "result": 0},
      {"measurement": "SC.Exp. 2-2", "setting": "[3]", "result": 0},
      {"measurement": "SC.Exp. Sum", "setting": "[3]", "result": 1},
      {"measurement": "AvgP", "setting": "[4]", "result": 0.2962},
      {"measurement": "SC.Exp. 1-1", "setting": "[4]", "result": 3},
      {"measurement": "SC.Exp. 1-2", "setting": "[4]", "result": 3},
      {"measurement": "SC.Exp. 2-1", "setting": "[4]", "result": 0},
      {"measurement": "SC.Exp. 2-2", "setting": "[4]", "result": 0},
      {"measurement": "Sum (SC.Exp.)", "setting": "[4]", "result": 6},
      {"measurement": "AvgP", "setting": "[5]", "result": 0.1881},
      {"measurement": "SC.Exp. 1-1", "setting": "[5]", "result": 2},
      {"measurement": "SC.Exp. 1-2", "setting": "[5]", "result": 0},
      {"measurement": "SC.Exp. 2-1", "setting": "[5]", "result": 0},
      {"measurement": "SC.Exp. 2-2", "setting": "[5]", "result": 0},
      {"measurement": "Sum (SC.Exp.)", "setting": "[5]", "result": 2},
      {"measurement": "AvgP", "setting": "[6]", "result": 0.1854},
      {"measurement": "SC.Exp. 1-1", "setting": "[6]", "result": 4},
      {"measurement": "SC.Exp. 1-2", "setting": "[6]", "result": 0},
      {"measurement": "SC.Exp. 2-1", "setting": "[6]", "result": 0},
      {"measurement": "SC.Exp. 2-2", "setting": "[6]", "result": 0},
      {"measurement": "Sum (SC.Exp.)", "setting": "[6]", "result": 4},
      {"measurement": "AvgP", "setting": "[7]", "result": 0},
      {"measurement": "SC.Exp. 1-1", "setting": "[7]", "result": 0},
      {"measurement": "SC.Exp. 1-2", "setting": "[7]", "result": 0},
      {"measurement": "SC.Exp. 2-1", "setting": "[7]", "result": 0},
      {"measurement": "SC.Exp. 2-2", "setting": "[7]", "result": 1},
      {"measurement": "SC.Exp. Sum", "setting": "[7]", "result": 1},
      {"measurement": "AvgP", "setting": "[8]", "result": 0.4297},
      {"measurement": "SC.Exp. 1-1", "setting": "[8]", "result": 3},
      {"measurement": "SC.Exp. 1-2", "setting": "[8]", "result": 3},
      {"measurement": "SC.Exp. 2-1", "setting": "[8]", "result": 0},
      {"measurement": "SC.Exp. 2-2", "setting": "[8]", "result": 0},
      {"measurement": "Sum (SC.Exp.)", "setting": "[8]", "result": 6}
    ]}
  ]
}
